Data: patent publication US20250002507A1, “7,8-DIHYDRO-5H-1,6-NAPHTHYRIDINE DERIVATIVES AS POSITIVE ALLOSTERIC MODULATORS OF THE MUSCARINIC ACETYLCHOLINE RECEPTOR M4 FOR TREATING NEUROLOGICAL AND PSYCHIATRIC DISORDERS” (Vanderbilt University, priority 2021, published 2025)
pEC50: −log10 of the molar value.

Biological target: T1, Human M4 (Homo sapiens, UniProt P08173)
T1 construct: expressed in transfected cells
T1 sequence (P08173 1-479): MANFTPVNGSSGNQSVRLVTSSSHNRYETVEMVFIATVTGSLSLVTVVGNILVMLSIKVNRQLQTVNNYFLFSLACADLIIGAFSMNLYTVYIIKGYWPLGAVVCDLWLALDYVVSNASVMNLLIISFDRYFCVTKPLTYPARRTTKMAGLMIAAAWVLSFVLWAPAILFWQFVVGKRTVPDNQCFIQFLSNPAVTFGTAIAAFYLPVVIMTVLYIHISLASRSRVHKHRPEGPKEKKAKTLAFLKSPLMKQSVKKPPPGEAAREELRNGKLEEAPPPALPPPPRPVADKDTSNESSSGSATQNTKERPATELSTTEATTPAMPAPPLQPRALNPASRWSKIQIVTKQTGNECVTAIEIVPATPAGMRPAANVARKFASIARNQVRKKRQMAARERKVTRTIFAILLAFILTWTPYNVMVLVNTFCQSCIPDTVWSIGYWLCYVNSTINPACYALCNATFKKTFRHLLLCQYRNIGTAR
Test: mAChR M4 cell-based functional assay (calcium flux, potentiation of EC20 acetylcholine response), hM4-Gqi5 CHO-K1 cells
Details: for Emax at 30 µM: % ACh maximum at 30 μM, human M4, read-out: Emax; for pEC50: hM4-Gqi5 CHO-K1 cells, calcium flux, PAM of EC20 acetylcholine, read-out: Human M4 EC50
Protocol: Human and rat M4 cDNAs, along with the chimeric G protein Gqi5, were transfected into Chinese hamster ovary (CHO-K1) cells purchased from the American Type Culture Collection using Lipofectamine2000. hM4-Gqi5 cells were grown in Ham's F-12 medium containing 10% heat-inactivated fetal bovine serum (FBS), 20 mM HEPES, 50 μg/mL G418 sulfate, and 500 μg/mL Hygromycin B. rM4-Gqi5 cells were grown in DMEM containing 10% heat-inactivated FBS, 20 mM HEPES, 400 μg/mL G418 sulfate, and 500 μg/mL Hygromycin B.
For high throughput measurement of agonist-evoked increases in intracellular calcium, CHO-K1 cells stably expressing muscarinic receptors were plated in growth medium lacking G418 and hygromycin at 15,000 cells/20 μL/well in Greiner 384-well black-walled, tissue culture (TC)-treated, clear-bottom plates (VWR). Cells were incubated overnight at 37° C. and 5% CO2. The next day, cells were washed using an ELX 405 (BioTek) with assay buffer; the final volume was then aspirated to 20 μL. Next, 20 μL of a 2.3 μM stock of Fluo-4/acetoxymethyl ester (Invitrogen, Carlsbad, CA), prepared as a 2.3 mM stock in DMSO and mixed in a 1:1 ratio with 10% (w/v) Pluronic F-127 and diluted in assay buffer, was added to the wells and the cell plates were incubated for 50 min at 37° C. and 5% CO2. Dye was removed by washing with the ELX 405 and the final volume was aspirated to 20 μL. Compound master plates were formatted in an 11 point concentration-response curve (CRC) format (1:3 dilutions) in 100% DMSO with a starting concentration of 10 mM using a BRAVO liquid handler (Agilent). Test compound CRCs were then transferred to daughter plates (240 nL) using the Echo acoustic plate reformatter (Labcyte, Sunnyvale, CA) and then diluted into assay buffer (40 μL) to a 2× stock using a Thermo Fisher Combi (Thermo Fisher Scientific, Waltham, MA).
Calcium flux was measured using the Functional Drug Screening System (FDSS) 6000 or 7000 (Hamamatsu Corporation, Tokyo, Japan) as an increase in the fluorescent static ratio. Compounds were applied to cells (20 μL, 2×) using the automated system of the FDSS at 2-4 seconds into the protocol and the data were collected at 1 Hz. At 144 seconds, 10 μL of an EC20 concentration of the muscarinic receptor agonist acetylcholine was added (5×), followed by the addition of 12 μL of an EC80 concentration of acetylcholine at the 230 second time point (5×). Agonist activity was analyzed as a concentration-dependent increase in calcium mobilization upon compound addition. Positive allosteric modulator activity was analyzed as a concentration-dependent increase in the EC20 acetylcholine response. Antagonist activity was analyzed as a concentration-dependent decrease in the EC80 acetylcholine response. Concentration-response curves were generated using a four-parameter logistical equation in XLFit curve fitting software (IDBS, Bridgewater, NJ) for Excel (Microsoft, Redmond, WA) or Prism (GraphPad Software, Inc., San Diego, CA).
Compounds were synthesized as described above. Activity (EC50 and Emax) was determined in the mAChR M4 cell-based functional assay as described above and the data are shown in Tables 2-4. The compound number corresponds to the compound numbers used in Table 1.

Row | Emax at 30 µM (CHO-K1) [%] | pEC50 | Emax (CHO-K1) [%] | Compound
1 | 94 |  |  | Cc1c(N2CCc3ncc(-c4cnn(Cc5ccccn5)c4)cc3C2)nn2cnnc2c1C [Compound 24, 6-(7,8-dimethyl-[1,2,4]triazolo[4,3-b]pyridazin-6-yl)-3-[1-(2-pyridylmethyl)pyrazol-4-yl]-7,8-dihydro-5H-1,6-naphthyridine]
2 | 65 | 6.46 |  | Cc1c(N2CCc3ncc(N4CCC5OCCCC5C4)cc3C2)nn2cnnc2c1C (stereo not shown) [Compound 25, 6-[6-(7,8-dimethyl-[1,2,4]triazolo[4,3-b]pyridazin-6-yl)-7,8-dihydro-5H-1,6-naphthyridin-3-yl]-2,3,4,4a,5,7,8,8a-octahydropyrano[3,2-c]pyridine]
3 | 75 | 6.13 |  | Cc1c(N2CCc3ncc(NCC4CCCO4)cc3C2)nn2cnnc2c1C (stereo not shown) [Compound 26, 6-(7,8-dimethyl-[1,2,4]triazolo[4,3-b]pyridazin-6-yl)-N-(tetrahydrofuran-2-ylmethyl)-7,8-dihydro-5H-1,6-naphthyridin-3-amine]
4 | 77 | 6.22 |  | COc1ccc(Nc2cnc3c(c2)CN(c2nn4cnnc4c(C)c2C)CC3)c(F)c1F [Compound 27, N-(2,3-difluoro-4-methoxy-phenyl)-6-(7,8-dimethyl-[1,2,4]triazolo[4,3-b]pyridazin-6-yl)-7,8-dihydro-5H-1,6-naphthyridin-3-amine]
5 | 93 | 6.64 |  | COc1ccc(Nc2cnc3c(c2)CN(c2nn4cnnc4c(C)c2C)CC3)c(F)c1 [Compound 28, 6-(7,8-dimethyl-[1,2,4]triazolo[4,3-b]pyridazin-6-yl)-N-(2-fluoro-4-methoxy-phenyl)-7,8-dihydro-5H-1,6-naphthyridin-3-amine]
6 | 87 | 6.35 |  | Cc1c(N2CCc3ncc(Nc4c(F)ccc(Cl)c4F)cc3C2)nn2cnnc2c1C [Compound 29, N-(3-chloro-2,6-difluoro-phenyl)-6-(7,8-dimethyl-[1,2,4]triazolo[4,3-b]pyridazin-6-yl)-7,8-dihydro-5H-1,6-naphthyridin-3-amine]
7 | 94 | 6.92 |  | Cc1c(N2CCc3ncc(Nc4cc(F)cc(F)c4F)cc3C2)nn2cnnc2c1C [Compound 30, 6-(7,8-dimethyl-[1,2,4]triazolo[4,3-b]pyridazin-6-yl)-N-(2,3,5-trifluorophenyl)-7,8-dihydro-5H-1,6-naphthyridin-3-amine]
8 | 88 | 6.34 |  | COc1cc(F)c(Nc2cnc3c(c2)CN(c2nn4cnnc4c(C)c2C)CC3)c(F)c1 [Compound 31, N-(2,6-difluoro-4-methoxy-phenyl)-6-(7,8-dimethyl-[1,2,4]triazolo[4,3-b]pyridazin-6-yl)-7,8-dihydro-5H-1,6-naphthyridin-3-amine]
9 | 102 | 7.07 |  | Cc1c(N2CCc3ncc(Nc4cc(F)ccc4F)cc3C2)nn2cnnc2c1C [Compound 32, N-(2,5-difluorophenyl)-6-(7,8-dimethyl-[1,2,4]triazolo[4,3-b]pyridazin-6-yl)-7,8-dihydro-5H-1,6-naphthyridin-3-amine]
10 |  | 6.79 | 94 | Cc1c(N2CCc3ncc(Nc4ccccc4F)cc3C2)nn2cnnc2c1C [Compound 33, 6-(7,8-Dimethyl-[1,2,4]triazolo[4,3-b]pyridazin-6-yl)-N-(2-fluorophenyl)-5,6,7,8-tetrahydro-1,6-naphthyridin-3-amine]
11 | 93 | 6.25 |  | Cc1c(N2CCc3ncc(Nc4cc(Cl)ccc4F)cc3C2)nn2cnnc2c1C [Compound 34, N-(5-chloro-2-fluoro-phenyl)-6-(7,8-dimethyl-[1,2,4]triazolo[4,3-b]pyridazin-6-yl)-7,8-dihydro-5H-1,6-naphthyridin-3-amine]
12 | 78 | 5.72 |  | Cc1cc(-c2cnc3c(c2)CN(c2nn4cnnc4c(C)c2C)CC3)cc(Cl)n1 [Compound 35, 3-(2-chloro-6-methyl-4-pyridyl)-6-(7,8-dimethyl-[1,2,4]triazolo[4,3-b]pyridazin-6-yl)-7,8-dihydro-5H-1,6-naphthyridine]
13 | 85 | 6.53 |  | Cc1c(N2CCc3ncc(-c4ccc(C(F)(F)F)nc4)cc3C2)nn2cnnc2c1C [Compound 36, 6-(7,8-dimethyl-[1,2,4]triazolo[4,3-b]pyridazin-6-yl)-3-[6-(trifluoromethyl)-3-pyridyl]-7,8-dihydro-5H-1,6-naphthyridine]
14 | 59 | 5.64 |  | Cc1ncc(-c2cnc3c(c2)CN(c2nn4cnnc4c(C)c2C)CC3)cn1 [Compound 37, 6-(7,8-dimethyl-[1,2,4]triazolo[4,3-b]pyridazin-6-yl)-3-(2-methylpyrimidin-5-yl)-7,8-dihydro-5H-1,6-naphthyridine]
15 | 90 | 6.83 |  | Cc1c(N2CCc3ncc(-c4ccc(C5CC5)nc4)cc3C2)nn2cnnc2c1C [Compound 38, 3-(6-cyclopropyl-3-pyridyl)-6-(7,8-dimethyl-[1,2,4]triazolo[4,3-b]pyridazin-6-yl)-7,8-dihydro-5H-1,6-naphthyridine]
16 | 95 | 6.94 |  | Cc1ccc(-c2cnc3c(c2)CN(c2nn4cnnc4c(C)c2C)CC3)cn1 [Compound 39, 6-(7,8-dimethyl-[1,2,4]triazolo[4,3-b]pyridazin-6-yl)-3-(6-methyl-3-pyridyl)-7,8-dihydro-5H-1,6-naphthyridine]
17 | 69 | 6.15 |  | Cc1c(N2CCc3ncc(-c4cncc(C#N)c4)cc3C2)nn2cnnc2c1C [Compound 40, 5-[6-(7,8-dimethyl-[1,2,4]triazolo[4,3-b]pyridazin-6-yl)-7,8-dihydro-5H-1,6-naphthyridin-3-yl]pyridine-3-carbonitrile]
18 | 81 | 6.35 |  | COc1ccncc1-c1cnc2c(c1)CN(c1nn3cnnc3c(C)c1C)CC2 [Compound 41, 6-(7,8-dimethyl-[1,2,4]triazolo[4,3-b]pyridazin-6-yl)-3-(4-methoxy-3-pyridyl)-7,8-dihydro-5H-1,6-naphthyridine]
19 | 94 | 6.66 |  | Cc1c(N2CCc3ncc(-c4ccc(F)nc4)cc3C2)nn2cnnc2c1C [Compound 42, 6-(7,8-dimethyl-[1,2,4]triazolo[4,3-b]pyridazin-6-yl)-3-(6-fluoro-3-pyridyl)-7,8-dihydro-5H-1,6-naphthyridine]
20 | 94 | 6.74 |  | COc1ccc(-c2cnc3c(c2)CN(c2nn4cnnc4c(C)c2C)CC3)cn1 [Compound 43, 6-(7,8-dimethyl-[1,2,4]triazolo[4,3-b]pyridazin-6-yl)-3-(6-methoxy-3-pyridyl)-7,8-dihydro-5H-1,6-naphthyridine]
21 | 92 | 6.83 |  | Cc1c(N2CCc3ncc(-c4cccnc4)cc3C2)nn2cnnc2c1C [Compound 44, 6-(7,8-dimethyl-[1,2,4]triazolo[4,3-b]pyridazin-6-yl)-3-(3-pyridyl)-7,8-dihydro-5H-1,6-naphthyridine]
22 | 71 | 6.57 |  | Cc1c(N2CCc3ncc(Nc4cc(Cl)c(F)cc4F)cc3C2)nn2cnnc2c1C [Compound 45, N-(5-chloro-2,4-difluoro-phenyl)-6-(7,8-dimethyl-[1,2,4]triazolo[4,3-b]pyridazin-6-yl)-7,8-dihydro-5H-1,6-naphthyridin-3-amine]
